Test results as given in patent publication US20230265151A1, “GIP/GLP1 CO-AGONIST COMPOUNDS” (priority 2020, published 2023).
Like-named read-outs stand apart in the source and are kept apart here. *1 amine or outer side, *2 acyl side, *3 side chain or, on linkers, in order; H or OH if unused. Where a SMILES comes first, the peptide text is derived from it. Side-chain parts run from the residue outwards. [ ]: non-standard residue; d: D form. The star is where a group is joined. αMePhe(2-F) = C[C@](N)(Cc1ccccc1F)C(=O)O; γGlu = O=C(O)[C@H](CCC(=O)[*:2])N[*:1]; C14 diacid = O=C(O)CCCCCCCCCCCCC(=O)*; αMeY = C[C@](N)(Cc1ccc(O)cc1)C(=O)O; 4Pal = N[C@@H](Cc1ccncc1)C(=O)O; αMeL = CC(C)C[C@](C)(N)C(=O)O; αMeS = C[C@](N)(CO)C(=O)O; Orn = NCCC[C@H](N)C(=O)O; AEEA = NCCOCCOCC(=O)O; Aib = CC(C)(N)C(=O)O

Assays:
Format in all cases: cell-based
hGCGR = biological target: T1, hGCGR (Homo sapiens, UniProt P47871); assay: Functional cAMP formation (HTRF) in HEK-293 clonal cells expressing hGCGR, 0.1% bovine casein, without or with 1.0% human serum albumin; details: hGCGR EC50, nM (SEM, n), geometric mean
T1 construct: expressed in transfected cells
How it was run: (§1)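 Cells were stimulated with peptide for 30 min at 37° C, then intracellular cAMP was measured by competitive HTRF (665/620 nm ratio) and converted to nM using a cAMP standard curve. Relative EC50 and Emax came from four-parameter logistic fits of percent maximal response against peptide concentration.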

hGIPR = biological target: T2, hGIPR (Homo sapiens, UniProt P48546); assay: Functional cAMP formation (HTRF) in HEK-293 clonal cells expressing hGIPR, 0.1% bovine casein, without or with 1.0% human serum albumin
T2 construct: expressed in transfected cells
T2 sequence (P48546 22-466): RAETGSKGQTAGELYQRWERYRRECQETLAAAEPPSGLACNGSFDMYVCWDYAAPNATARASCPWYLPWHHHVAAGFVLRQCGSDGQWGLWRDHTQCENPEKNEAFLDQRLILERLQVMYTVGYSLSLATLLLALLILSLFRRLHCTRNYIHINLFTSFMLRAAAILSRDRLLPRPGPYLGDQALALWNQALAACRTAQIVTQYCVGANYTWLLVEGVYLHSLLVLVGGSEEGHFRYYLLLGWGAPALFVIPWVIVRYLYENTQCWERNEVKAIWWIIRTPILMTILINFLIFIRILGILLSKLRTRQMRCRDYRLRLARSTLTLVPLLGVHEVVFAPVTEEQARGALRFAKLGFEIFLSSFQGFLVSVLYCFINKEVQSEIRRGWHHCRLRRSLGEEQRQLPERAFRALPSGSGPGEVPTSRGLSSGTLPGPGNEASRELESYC
How it was run: as §1

hGLP-1R = hGLP-1R (Homo sapiens, UniProt P43220); assay: Functional cAMP formation (HTRF) in HEK-293 clonal cells expressing hGLP-1R, 0.1% bovine casein, without or with 1.0% human serum albumin; set-up: expressed in transfected cells
How it was run: as §1

Chain of hGLP-1R (P43220 24-463): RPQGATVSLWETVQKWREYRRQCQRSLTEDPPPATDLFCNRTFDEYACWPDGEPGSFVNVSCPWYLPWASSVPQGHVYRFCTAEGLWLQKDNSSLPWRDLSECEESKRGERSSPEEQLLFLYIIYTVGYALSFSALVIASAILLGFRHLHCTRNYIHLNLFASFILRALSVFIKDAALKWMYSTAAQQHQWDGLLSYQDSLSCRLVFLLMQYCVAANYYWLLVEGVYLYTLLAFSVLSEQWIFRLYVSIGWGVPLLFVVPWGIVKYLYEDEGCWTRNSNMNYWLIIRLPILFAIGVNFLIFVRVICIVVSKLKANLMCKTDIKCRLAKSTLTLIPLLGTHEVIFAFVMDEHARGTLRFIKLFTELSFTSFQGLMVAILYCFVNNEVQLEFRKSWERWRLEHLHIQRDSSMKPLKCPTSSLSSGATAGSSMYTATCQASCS
T1 sequence (P47871 26-477): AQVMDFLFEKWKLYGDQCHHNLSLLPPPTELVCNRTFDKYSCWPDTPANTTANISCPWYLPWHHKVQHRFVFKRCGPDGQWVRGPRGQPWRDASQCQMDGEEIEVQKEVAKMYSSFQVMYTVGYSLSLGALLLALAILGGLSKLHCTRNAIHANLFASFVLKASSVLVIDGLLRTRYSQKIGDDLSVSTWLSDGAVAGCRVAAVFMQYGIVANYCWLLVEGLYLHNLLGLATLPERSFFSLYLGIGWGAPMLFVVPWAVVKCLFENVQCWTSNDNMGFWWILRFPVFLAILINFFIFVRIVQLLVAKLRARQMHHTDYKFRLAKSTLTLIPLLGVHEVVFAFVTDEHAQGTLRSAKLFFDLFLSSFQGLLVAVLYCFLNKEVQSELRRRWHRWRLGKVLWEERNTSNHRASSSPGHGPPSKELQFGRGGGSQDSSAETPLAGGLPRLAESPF

For `CC[C@H](C)[C@H](NC(=O)[C@H](CCCN)NC(=O)[C@H](CC(=O)O)NC(=O)[C@H](CC(C)C)NC(=O)[C@](C)(CC(C)C)NC(=O)[C@@H](NC(=O)[C@](C)(CO)NC(=O)[C@H](Cc1ccncc1)NC(=O)[C@H](CC(=O)O)NC(=O)[C@H](CO)NC(=O)[C@@H](NC(=O)[C@](C)(Cc1ccccc1F)NC(=O)[C@@H](NC(=O)CNC(=O)[C@H](CCC(=O)O)NC(=O)C(C)(C)NC(=O)[C@@H](N)Cc1ccc(O)cc1)[C@@H](C)O)[C@@H](C)O)[C@@H](C)CC)C(=O)N[C@@H](C)C(=O)N[C@@H](CCC(N)=O)C(=O)NC(C)(C)C(=O)N[C@@H](CCCCNC(=O)COCCOCCNC(=O)COCCOCCNC(=O)CC[C@H](NC(=O)CCCCCCCCCCCCC(=O)O)C(=O)O)C(=O)N[C@@H](Cc1ccccc1)C(=O)N[C@H](C(=O)N[C@@H](CCCCNC(=O)COCCOCCNC(=O)COCCOCCNC(=O)CC[C@H](NC(=O)CCCCCCCCCCCCC(=O)O)C(=O)O)C(=O)N[C@@](C)(Cc1ccc(O)cc1)C(=O)N[C@@H](CC(C)C)C(=O)N[C@H](C(=O)N[C@@H](CCC(=O)O)C(=O)NCC(=O)NCC(=O)N1CCC[C@H]1C(=O)N[C@@H](CO)C(=O)N[C@@H](CO)C(=O)NCC(=O)N[C@@H](C)C(=O)N1CCC[C@H]1C(=O)N1CCC[C@H]1C(=O)N1CCC[C@H]1C(=O)N[C@@H](CO)C(N)=O)[C@@H](C)CC)[C@@H](C)CC` [Example 215] (H-Y[Aib]EGT[αMePhe(2-F)]TSD[4Pal][αMeS]I[αMeL]LD[Orn]IAQ[Aib]K([AEEA-AEEA-γGlu-C14 diacid])FIK([AEEA-AEEA-γGlu-C14 diacid])[αMeY]LIEGGPSSGAPPPS-NH2), the EC50 (hGCGR; 0.1% bovine casein and 1.0% human serum albumin, 37° C.) was > 9950 nM, the EC50 (hGCGR; cAMP, incubated at 37° C., 0.1% bovine casein (no human serum albumin)) was > 9950 nM and the Emax (hGIPR; HEK293, read-out: hGIPR Emax, % ± SEM, 0.1% bovine casein and 1.0% human serum albumin, 37° C., percent of maximal response to GIP(1-42)NH2) was 91.3%. The Emax (hGIPR; HEK293, read-out: hGIPR Emax, % ± SEM, percent of maximal response to GIP(1-42)NH2, 37° C., 0.1% bovine casein, arithmetic mean) was 85%, the EC50 (hGIPR; hGIPR EC50, nM (SEM, n), cAMP, incubated at 37° C., 0.1% bovine casein (no human serum albumin), geometric mean) was 0.0437 nM and the Emax (hGLP-1R; HEK293, read-out: hGLP-1R Emax, % ± SEM, percent of maximal response to GLP-1(7-36)NH2, 37° C., 0.1% bovine casein, arithmetic mean) was 89.8%. It also gave an EC50 (hGLP-1R; hGLP-1R EC50, nM (SEM, n), cAMP, incubated at 37° C., 0.1% bovine casein (no human serum albumin), geometric mean) of 0.44 nM.
